Data taken from patent US6365628B1 (Thia Medica AS, priority 1998, dated 2002).

Key:
[1] = test system: male Wistar rats; assay: Hepatic levels of triacylglycerol in rats fed fatty acid analogues (Example 17); format: in vivo, rat; conditions: no prefeeding
From the text: Even an increased hepatic level of triacylglycerol may be relieved by TTA. Feeding rats with an inhibitor of fatty acid oxidation will increase the level of hepatic triacylglycerol resulting in fatty liver. Tetradecyl-4-thia propionic acid (TTP) is a fatty acid analogue with a sulphur atom in the 4 position. This analogue inhibits the β-oxidation of fatty acids due to the formation of a mitochondrial inhibitor. Feeding rats with this analogue results in the formation of fatty. However, if the rats are fed with a combination of TTA and TTP, the formation of fatty liver is avoided (Table 8). This provides evidence that TTA may be used for the treatment of conditions with an increased hepatic level of triacylglycerol. Male Wistar rats had free access to water and rat maintenance chow. They were fed palmitic acid or fatty acid analogues suspended in 0.5% CMC for 6 days. In some experiments TTA or TTP were fed for 3 days before feeding both for 6 days. At the end of the experiment the rats were fasted overnight, killed, the liver removed and homogenized. Triacylglycerol was measured in the homogenate.

[2] = test system: Salmonella typhimurium; assay: Test for mutagenic activity in Salmonella typhimurium strains; format: cell-based; conditions: 3-1000 mg/plate (TTA) 2-5000 mg/plate (TSA)
From the text: (§1) Tests for mutagenic activity have been performed by Covance Laboratories Limited, England. […] Furthermore, TTA was not mutagenic when tested in mouse lymphoma cells […] L5178Y.

[3] = test system: Escherichia coli; assay: Test for mutagenic activity in Escherichia coli strains; format: cell-based; conditions: 3-1000 mg/plate (TTA) 2-5000 mg/plate (TSA)
From the text: as §1

[4] = test system: chinese hamster ovary cells; assay: Chromosomal aberrations in cultured chinese hamster ovary cells; format: cell-based; conditions: doses tested 12-140 mg/ml
[5] = test system: Wistar rats; assay: Lipid lowering effect in normal Wistar rats (Example 4); format: in vivo, rat; conditions: gavage once daily for 7 days
Procedure: Phospholipids were measured by the enzymatic method of bioMérieux, Marcy-l {grave over ( )}Etoile, France, Triacylglycerol by the Technicon Method no. SA4-0324L90, USA and Cholesterol by the Technicon Method no. SA4-0305L90, USA.
Male Wistar rats, weighing 180-200 g at the start of the experiment, were housed individually in metal wire cages in a room maintained at 12 h light-dark cycles and a constant temperature of 20±3° C. The animals were acclimatised for one week under these conditions before the start of the experiments.
TTA, TSA and eicosapentaenoic acid (EPA) were suspended in 0.5% (w/v) carboxymethyl cellulose (CMC). Six animals were used for each treatment, and a 0.5% CMC solution was administrated to the rats as control. After administration of the test compound, the rats were fasted for 12 hours and anaesthetised with haloethan. The EPA and the fatty acid derivatives were administered by gastric intubation (gavage) once daily for 7 days. Blood samples were collected by cardiac puncture, and lipid concentrations in plasma were determined as outlined in the method section.

[6] = test system: rat liver mitochondrial β-oxidation; assay: Mitochondrial β-oxidation in rat liver, fatty acid analogues with S in different positions (Example 18); format: in vivo; conditions: [1-14C]-palmitoyl-L-carnitine as substrate
Procedure: Freshly isolated livers from individual old Zucker rats, were homogenised in ice-cold sucrose buffer (0.25 M sucrose, 10 mM HEPES (pH 7.4) and 2 mM EDTA). Post-nuclear and mitochondrial fractions were prepared using preparative differential centrifugation according to DeDuve et al. (De Duve, C., et al., Biochem. J., 60, 604-617 1955.) Modifications, purity and yield were as described earlier (Garras, A., et al., Biochim. Biophys. Acta, 1255, 154-160 1995.). Acid soluble products were measured in post-nuclear and mitochondrial enriched fractions, using [1-^14C]-palmitoyl-CoA and [1-^14C]-palmitoyl-L-carnitine (Radiochemical Centre, Amersham, England) as substrates as described earlier (Willumsen, N., et al., J. Lipid Res., 34, 13-22 1993. Carnitine palmitoyltransferase-I and -II activities were measured in the post-nuclear and mitochondrial fractions essentially as described by Bremer (Bremer, J., Biochim. Biophys. Acta, 665, 628-631 1981.) and 3-hydroxy-3-methylglutharyl-CoA synthase was measured according to Clinkenbeard et al. (Clinkenbeard, K. D., et al., J. Biol. Chem, 250, 3108-3116 1975.) in the mitochondrial fractions.
The mitochondrial β-oxidation is measured as in example 16 with the use of [1-^14C]-palmitoyl-L-carnitine as substrates.

[7] = dose 1500 mg/day/kg body weight

## CCCCCCCCCCCCCCSCCC(=O)O
[1]; TTP 300 mg/kg/day for 6 days
  Hepatic triacylglycerol TG (μmol/g): 95,4 ± 14,7 μmol/g

## Tetradecylselenoacetic acid [TSA]
[2]
  Induction of mutations in strains of Salmonella typhimurium: did not induce mutations
[3]
  Induction of mutations in strains of Escherichia coli: did not induce mutations
[4]
  Chromosomal aberrations in cultured chinese hamster ovary cells: no aberrations were induced
[5]; dose 15 mg/day/kg body weight
  Plasma lipids (% reduction of control) cholesterol: 20 % reduction of control
  Plasma lipids (% reduction of control) triglycerides: 25 % reduction of control

## CCCCCCCCCCCCCCCC(=O)O [Palm, palmitic acid]
[1]; palmitic acid for 6 days
  Hepatic triacylglycerol TG (μmol/g): 10,9 μmol/g
[6]
  Mitochondrial β-oxidation activity (nmol/min/mg protein): 0,47 ± 0,06 nmol/min/mg protein

## CC/C=C\C/C=C\C/C=C\C/C=C\C/C=C\CCCC(=O)O [EPA, eicosapentaenoic acid, reference compound]
[5]; [7]
  Plasma lipids (% reduction of control) cholesterol: 18 % reduction of control
  Plasma lipids (% reduction of control) triglycerides: 20 % reduction of control
